The text below walks through data of US20180318280A1 (Salmon Pharma GmbH, priority 2017, published 2018).

Assay [1] relates to serum phosphate. Description: Phase II dose finding study (DONATO), patients on hemodialysis: serum phosphate. In kind it is in vivo, human. To be noted: for a 0.22603 mmol/l phosphate level reduction against compare group; dose response of modified release capsules, 4 weeks. The source says: Secondary outcome criteria included a comparison of the two different […] of nicotinamide by means of several measures of safety and efficacy.

In assay [2] the test system is S-phosphate, fractional phosphate elimination, FGF23. Description: DBA/2 mice: S-phosphate, fractional phosphate elimination, FGF23. Particulars: for FGF23 / fractional phosphate elimination: DBA/2 mice. Type of assay: in vivo, mouse.
Source text: For this purpose, 5/6 nephrectomized DBA/2 mice were used as model for vascular calcification.
Assay [3] addresses GPR109A receptor (Homo sapiens, UniProt Q8TDS4). Particulars: cited from earlier work.
For assay [4] the following is noted: given in combination with the phosphate binder sevelamer; cited from earlier work.

Chain of GPR109A receptor (Q8TDS4 whole entry): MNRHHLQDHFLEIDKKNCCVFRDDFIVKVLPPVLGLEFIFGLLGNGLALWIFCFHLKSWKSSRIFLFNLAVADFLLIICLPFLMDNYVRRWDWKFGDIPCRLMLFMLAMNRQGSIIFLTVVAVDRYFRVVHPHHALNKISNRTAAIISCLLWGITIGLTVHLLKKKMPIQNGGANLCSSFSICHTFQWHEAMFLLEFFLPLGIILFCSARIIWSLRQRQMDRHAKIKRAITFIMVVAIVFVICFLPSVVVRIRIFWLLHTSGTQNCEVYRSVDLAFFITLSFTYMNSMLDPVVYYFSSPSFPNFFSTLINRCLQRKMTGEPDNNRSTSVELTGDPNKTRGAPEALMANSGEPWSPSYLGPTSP

Compound `NC(=O)c1cccnc1` [nicotinamide] showed a minimum effective dose in assay [1] of 450 mg. Besides, in assay [2], the FGF23 entry is recorded as “reduction” and the fractional phosphate elimination result is given as “reduction”. Also, in assay [2] (only in healthy DBA/2 mice with high phosphate diet, NA in the drinking water), the S-phosphate entry is “decrease”. In addition, the “binding to or effect on the GPR109A receptor” value in assay [3] is listed as “does not bind or otherwise affect”. Further, in assay [4], the treatment of hyperphosphatemia entry was “ineffective”.

On to `O=C([O-])[O-].[Mg+2]` [magnesium carbonate], for which, in assay [2], the FGF23 entry is recorded as “reduction” and the fractional phosphate elimination entry is on record as “reduction”.
